The numbers were not newly measured in patent US20060099251A1, “Formulations of finasteride” (priority 2002, published 2006), which cites them from elsewhere.

With `CC(C)(C)NC(=O)[C@H]1CCC2[C@@H]3CCC4NC(=O)C=C[C@]4(C)C3CC[C@@]21C` (stereo partly drawn) [Finasteride, 17β-(N-tert-butylcarbamoyl)-4-aza-5α-androst-1-en-3-one], the solubility in water entry is given as “practically insoluble”.
